Source: patent US12257287B2, “Glucagon-derived peptide and use thereof” (Tianjin Institute of Pharmaceutical Research Co., Ltd., priority 2018, dated 2025)
Values after ≈ are worked out from the molar mass of the structure shown. Marks after values point to notes of the source that are not given here. Numbered stars: 1 amine (or outer) side, 2 acyl side, 3 side chain; on linkers, the order of the positions; unused ones are H or OH. Square brackets hold non-standard residues; d marks the D form. Side chains are listed from the residue outwards. Peptide text beside a SMILES is read from it. * marks the point of attachment. C20 diacid = O=C(O)CCCCCCCCCCCCCCCCCCC(=O)*; C18 diacid = O=C(O)CCCCCCCCCCCCCCCCC(=O)*; γGlu = O=C(O)[C@H](CCC(=O)[*:2])N[*:1]; AEEA = NCCOCCOCC(=O)O; Aib = CC(C)(N)C(=O)O

Columns and labels:
[1] = molecular target: T1, human GLP-1 receptor (Homo sapiens, UniProt P43220); assay: GLP-1 receptor mediated cAMP production in vitro; type: cell-based; conditions: cells transfected with human GLP-1 receptor, 20 min at 37° C., read-out: GLP-1R (nM EC50)
T1 construct: expressed in transfected cells; host or cells: Chinese guinea pig lung cells [sic]
Text: (§1) The medium was removed, the cells were lysed, and cAMP values were detected referring to the detection method described for the assay kit.

[2] = molecular target: T2, GC receptor (Homo sapiens, UniProt P47871); assay: GC receptor mediated cAMP production in vitro (HEK293 cells transfected with GC receptor); type: cell-based; conditions: 20 min at 37° C., read-out: GCGR (nM EC50)
T2 construct: expressed in transfected cells; host or cells: HEK293 cells
Text: as §1

[3] = Effect on body weight of DIO mice after 14 days' administration; type: in vivo, C57BL/6J mice; conditions: DIO mice, subcutaneous injection every day for 14 days; (initial−last)/initial; positive values indicate a decrease
Text: C57BL/6J mice (n=35), model group (n=30) were fed with H10060 high-fat diet to induce obesity (DIO), blank control group (n=5) were fed with standard diet, both for 34 weeks. One day before the first administration, the model group was randomly divided into groups according to their body weight (average body weight range 45.0-52.0 g), with 5 mice in each group, which respectively were model control group, positive control group (semaglutide), and test sample group (1 #-4 # are compound 1, compound 4, compound 6 and compound 22, respectively). The blank control group and model control group were given saline subcutaneously every day, while the positive control group and test sample group were administrated by subcutaneous injection every day for 14 days. The body weight of the animals was weighed and recorded every day, and the change rate of body weight (%) was calculated by comparing the body weight at the last administration day with the initial body weight. (initial body weight−last body weight)/initial body weight=body weight change rate (%). Calculation formula: […]
Calculated positive values indicate a decrease and negative values indicate an increase.
(§2) Methods are the same as that in Example 3, the test results of effects on body weight are shown in Table 5, and the effects on blood glucose are shown in Table 6. In the table, 5 #-9 # are compound 27, compound 35, compound 54, compound 57, and compound 66, respectively.

[4] = Glucose tolerance test in glucose-loaded DIO mice; type: in vivo; conditions: for AUC of blood glucose, Table 4: DIO mice fasted 16 h, glucose 1 g/kg i.p. 1 h after s.c. administration, 0.5, 1, 1.5 h; for AUC reduction rate (%), Table 4: blood glucose inhibition rate compared with model control group, DIO mice, glucose 1 g/kg i.p.
Experimental: DIO mice fasted for 16 h, and 1 h after administration by subcutaneous injection, glucose solution (1 g/kg) was given intraperitoneally for glucose tolerance test. Blood glucose values were measured at 0.5, 1 and 1.5 h after glucose administration. The area under the blood glucose concentration curve (AUC) was calculated and compared with that of the model control group, and the blood glucose inhibition rate (%) was calculated.
as §2

[5] = physchem; type: physicochemical
Experimental: 2 mg of the compound was weighed, dissolved in 1 ml of phosphate buffer solutions with different concentrations (10, 20 mM) and different pH values (7.5, 8.0), and centrifuged, and supernatant was taken. The peak area was measured by HPLC (chromatographic column: Aeris widepore XB-C18 3.6 mm, 4.6×150 mm; mobile phase: A: 0.05% TFA, B: 95% acetonitrile; detection wavelength: 214 nm) and compared with a corresponding sample standard solution, and the relative concentration of the test sample solution is calculated.

[6] = Short-term administration: food intake and body weight in DIO mice; type: in vivo; conditions: 30 nmol/kg once every 24 h, twice, − decrease; for Rate of change in food intake (%): at 48 hours vs day before administration; for Body weight change: at 48 hours
In short: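 DIO mice (mean body weight 52.5 g), 5 per group, dosed at 30 nmol/kg every 24 h for two doses, in 10 mM PBS pH 7.4; controls received solvent. Food intake and body weight at 48 h expressed as change rate versus the day before dosing.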

[7] = Accelerated chemical stability in injection solvent system (HPLC-UV); type: physicochemical; conditions: 14 days, phosphate buffer pH 7.3 with Tween 80 and phenol, main peak area vs day 0
In short: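 Compound dissolved in 10 mM pH 8.5 sodium hydrogen phosphate buffer, adjusted to pH 7.3, with Tween 80 and phenol added. Solutions stored 14 days at 10 °C and 37 °C; HPLC-UV main-peak area by normalisation compared against day 0.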

[8] = pH 7.5, Solubility, pH 7.5, 10 mM phosphate buffer
[9] = pH 7.5, Solubility, pH 7.5, 20 mM phosphate buffer
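For Solubility in this document: compound added at 2 mg per mL of phosphate buffer, with the dissolved amount determined in the supernatant.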
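For Solubility, pH 7.5, 20 mM phosphate buffer in this document: compound added at 2 mg per mL of phosphate buffer, with the dissolved amount determined in the supernatant.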

T1 sequence (P43220 24-463): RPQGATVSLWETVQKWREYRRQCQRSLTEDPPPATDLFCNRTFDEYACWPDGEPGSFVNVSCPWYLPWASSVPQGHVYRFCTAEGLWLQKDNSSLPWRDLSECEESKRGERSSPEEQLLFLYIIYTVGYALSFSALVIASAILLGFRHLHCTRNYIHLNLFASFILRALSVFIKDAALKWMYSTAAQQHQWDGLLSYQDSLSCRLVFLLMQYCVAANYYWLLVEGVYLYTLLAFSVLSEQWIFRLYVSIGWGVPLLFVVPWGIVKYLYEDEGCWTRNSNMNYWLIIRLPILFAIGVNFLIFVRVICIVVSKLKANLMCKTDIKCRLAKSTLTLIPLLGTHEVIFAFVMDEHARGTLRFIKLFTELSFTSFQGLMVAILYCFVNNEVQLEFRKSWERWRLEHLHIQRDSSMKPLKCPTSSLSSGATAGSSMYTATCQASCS
T2 sequence (P47871 26-477): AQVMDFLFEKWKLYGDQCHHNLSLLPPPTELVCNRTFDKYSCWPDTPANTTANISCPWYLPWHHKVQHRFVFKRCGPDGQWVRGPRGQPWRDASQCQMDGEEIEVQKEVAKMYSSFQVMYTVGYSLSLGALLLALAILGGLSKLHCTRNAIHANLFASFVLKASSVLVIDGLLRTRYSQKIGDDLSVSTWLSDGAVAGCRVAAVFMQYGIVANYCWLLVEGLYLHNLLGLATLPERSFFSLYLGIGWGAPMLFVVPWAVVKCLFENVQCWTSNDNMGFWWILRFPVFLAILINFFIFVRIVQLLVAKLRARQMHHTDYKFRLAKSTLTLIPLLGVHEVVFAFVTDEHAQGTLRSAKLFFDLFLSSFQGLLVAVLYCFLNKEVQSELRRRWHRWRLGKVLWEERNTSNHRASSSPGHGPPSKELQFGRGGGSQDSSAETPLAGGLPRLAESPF

EC50 [1] [nM]	EC50 [2] [nM]	solubility [5, 8] [µg/mL]	solubility [5, 9] [µg/mL]	Solubility, pH 7.5, 20 mM phosphate buffer ([5]; pH 7.5)	solubility ([5]; pH 8, Solubility, pH 8.0, 10 mM phosphate buffer) [µg/mL]	solubility ([5]; pH 8, Solubility, pH 8.0, 20 mM phosphate buffer) [µg/mL]	Change in purity % (10° C.) ([7]; 10° C.) [%]	Change in purity % (37° C.) ([7]; 37° C.) [%]	Compound	body weight change rate, Table 3 [3] [%]	AUC of blood glucose, Table 4 [4] [mmol·h/L]	AUC reduction rate (%), Table 4 [4]	Rate of change in food intake (%) [6] [%]	Body weight change [6] [g]
0.219	0.0352	> 2000	> 2000						CCCCCCCCCCCCCCCC(=O)N[C@@H](CCC(=O)N[C@@H](CCC(=O)NCCCC[C@H](NC(=O)[C@H](CC(=O)O)NC(=O)[C@H](CO)NC(=O)[C@@H](NC(=O)[C@H](Cc1ccccc1)NC(=O)[C@@H](NC(=O)CNC(=O)[C@H](CCC(N)=O)NC(=O)C(C)(C)NC(=O)[C@@H](N)Cc1c[nH]cn1)[C@@H](C)O)[C@@H](C)O)C(=O)N[C@@H](CO)C(=O)N[C@@H](CCCCN)C(=O)N[C@@H](Cc1ccc(O)cc1)C(=O)N[C@@H](CC(C)C)C(=O)N[C@@H](CCC(=O)O)C(=O)N[C@@H](CCC(=O)O)C(=O)N[C@@H](CCCNC(=N)N)C(=O)N[C@@H](C)C(=O)N[C@@H](C)C(=O)N[C@@H](CCCCN)C(=O)N[C@@H](CCC(=O)O)C(=O)N[C@@H](Cc1ccccc1)C(=O)N[C@H](C(=O)N[C@@H](CCC(=O)O)C(=O)N[C@@H](Cc1c[nH]c2ccccc12)C(=O)N[C@@H](CC(C)C)C(=O)N[C@@H](CCC(=O)O)C(=O)N[C@@H](C)C(=O)NCC(=O)NCC(=O)N1CCC[C@H]1C(=O)N[C@@H](CO)C(=O)N[C@@H](CO)C(=O)NCC(N)=O)C(C)C)C(=O)O)C(=O)O [Compound 2] (HELM PEPTIDE1{H.[Aib].Q.G.T.F.T.S.D.K.S.K.Y.L.E.E.R.A.A.K.E.F.V.E.W.L.E.A.G.G.P.S.S.G.[am]}|PEPTIDE2{[CCCCCCCCCCCCCCCC(=O)[*:2]].[gGlu].[gGlu]}$PEPTIDE1,PEPTIDE2,10:R3-3:R2$$$V2.0; N-terminus assumed)	22.0	8.06 ± 2.06	61.9** %		
20.7	0.1	60 (≈ 14.2 µM)		Insoluble	170 (≈ 40.3 µM)	90 (≈ 21.3 µM)			CCCCCCCCCCCCCCCC(=O)N[C@@H](CCC(=O)N[C@@H](CCC(=O)NCCCC[C@H](NC(=O)[C@H](CC(=O)O)NC(=O)[C@H](CO)NC(=O)[C@@H](NC(=O)[C@H](Cc1ccccc1)NC(=O)[C@@H](NC(=O)CNC(=O)[C@H](CCC(N)=O)NC(=O)C(C)(C)NC(=O)[C@@H](N)Cc1c[nH]cn1)[C@@H](C)O)[C@@H](C)O)C(=O)N[C@@H](CO)C(=O)N[C@@H](CCCCN)C(=O)N[C@@H](Cc1ccc(O)cc1)C(=O)N[C@@H](CC(C)C)C(=O)N[C@@H](CCC(=O)O)C(=O)N[C@@H](CCC(=O)O)C(=O)N[C@@H](CCCNC(=N)N)C(=O)N[C@@H](C)C(=O)N[C@@H](C)C(=O)N[C@@H](CCCCN)C(=O)N[C@@H](CCC(=O)O)C(=O)N[C@@H](Cc1ccccc1)C(=O)N[C@H](C(=O)N[C@@H](C)C(=O)N[C@@H](Cc1c[nH]c2ccccc12)C(=O)N[C@@H](CC(C)C)C(=O)N[C@@H](CCCCN)C(=O)N[C@@H](CCC(=O)O)C(=O)NCC(=O)NCC(=O)N1CCC[C@H]1C(=O)N[C@@H](CO)C(=O)N[C@@H](CO)C(=O)NCC(N)=O)C(C)C)C(=O)O)C(=O)O [Compound 3] (HELM PEPTIDE1{H.[Aib].Q.G.T.F.T.S.D.K.S.K.Y.L.E.E.R.A.A.K.E.F.V.A.W.L.K.E.G.G.P.S.S.G.[am]}|PEPTIDE2{[CCCCCCCCCCCCCCCC(=O)[*:2]].[gGlu].[gGlu]}$PEPTIDE1,PEPTIDE2,10:R3-3:R2$$$V2.0; N-terminus assumed)	22.0	8.66 ± 2.14	59.1** %		
0.141	0.087	> 2000	> 2000				−1.9	−4.5	CC[C@H](C)[C@H](NC(=O)[C@H](Cc1ccccc1)NC(=O)[C@H](CCC(=O)O)NC(=O)[C@H](CCCCN)NC(=O)[C@H](C)NC(=O)[C@H](C)NC(=O)[C@H](CCCNC(=N)N)NC(=O)[C@H](CCC(=O)O)NC(=O)[C@H](CC(=O)O)NC(=O)[C@H](CC(C)C)NC(=O)[C@H](Cc1ccc(O)cc1)NC(=O)[C@H](CCCCN)NC(=O)[C@H](CO)NC(=O)[C@H](CCCCNC(=O)COCCOCCNC(=O)COCCOCCNC(=O)CC[C@H](NC(=O)CCCCCCCCCCCCCCCCC(=O)O)C(=O)O)NC(=O)[C@H](CC(=O)O)NC(=O)[C@H](CO)NC(=O)[C@@H](NC(=O)[C@H](Cc1ccccc1)NC(=O)[C@@H](NC(=O)CNC(=O)[C@H](CCC(N)=O)NC(=O)C(C)(C)NC(=O)[C@@H](N)Cc1c[nH]cn1)[C@@H](C)O)[C@@H](C)O)C(=O)N[C@@H](C)C(=O)N[C@@H](Cc1c[nH]c2ccccc12)C(=O)N[C@@H](CC(C)C)C(=O)N[C@@H](CCC(=O)O)C(=O)NCC(=O)NCC(=O)N1CCC[C@H]1C(=O)N[C@@H](CO)C(=O)N[C@@H](CO)C(=O)NCC(N)=O [Compound 75] (H-H[Aib]QGTFTSDK([AEEA-AEEA-γGlu-C18 diacid])SKYLDERAAKEFIAWLEGGPSSG-NH2; N-terminus assumed)				−60	-2.4
0.291	0.076								CC[C@H](C)[C@H](NC(=O)[C@H](Cc1ccccc1)NC(=O)[C@H](CCC(=O)O)NC(=O)[C@H](CCCCN)NC(=O)[C@H](C)NC(=O)[C@H](C)NC(=O)[C@H](CCCNC(=N)N)NC(=O)[C@H](CCC(=O)O)NC(=O)[C@H](CC(=O)O)NC(=O)[C@H](CC(C)C)NC(=O)[C@H](Cc1ccc(O)cc1)NC(=O)[C@H](CCCCN)NC(=O)[C@H](CO)NC(=O)[C@H](CCCCNC(=O)COCCOCCNC(=O)COCCOCCNC(=O)CC[C@H](NC(=O)CCCCCCCCCCCCCCCCCCC(=O)O)C(=O)O)NC(=O)[C@H](CC(=O)O)NC(=O)[C@H](CO)NC(=O)[C@@H](NC(=O)[C@H](Cc1ccccc1)NC(=O)[C@@H](NC(=O)CNC(=O)[C@H](CCC(N)=O)NC(=O)C(C)(C)NC(=O)[C@@H](N)Cc1c[nH]cn1)[C@@H](C)O)[C@@H](C)O)C(=O)N[C@@H](C)C(=O)N[C@@H](Cc1c[nH]c2ccccc12)C(=O)N[C@@H](CC(C)C)C(=O)N[C@@H](CCC(=O)O)C(=O)N[C@@H](C)C(=O)NCC(=O)NCC(=O)N1CCC[C@H]1C(=O)N[C@@H](CO)C(=O)N[C@@H](CO)C(=O)NCC(N)=O [Compound 77] (H-H[Aib]QGTFTSDK([AEEA-AEEA-γGlu-C20 diacid])SKYLDERAAKEFIAWLEAGGPSSG-NH2; N-terminus assumed)				−51	-2.9
